Data taken from article PMC2649372 (Biochemistry, 2008).
Changes are numbered by the printed parent chain. “And” between values parts separate entries of the source, which are not always exact repeats. Equal values may be shown once. Marks after values point to notes of the source that are not given here.

Columns and labels:
[1] = target: T1, E129N mutant 5-HT3 receptor (mouse 5-HT3A subunit) (Mus musculus, UniProt P23979, E129N); assay: Granisetron inhibition of 5-HT-induced responses in oocytes; format: cell-based; conditions: 100 nM granisetron, EC50 concentration of 5-HT
T1 sequence (P23979 24-483 isoform P23979-2 E129N limits assumed): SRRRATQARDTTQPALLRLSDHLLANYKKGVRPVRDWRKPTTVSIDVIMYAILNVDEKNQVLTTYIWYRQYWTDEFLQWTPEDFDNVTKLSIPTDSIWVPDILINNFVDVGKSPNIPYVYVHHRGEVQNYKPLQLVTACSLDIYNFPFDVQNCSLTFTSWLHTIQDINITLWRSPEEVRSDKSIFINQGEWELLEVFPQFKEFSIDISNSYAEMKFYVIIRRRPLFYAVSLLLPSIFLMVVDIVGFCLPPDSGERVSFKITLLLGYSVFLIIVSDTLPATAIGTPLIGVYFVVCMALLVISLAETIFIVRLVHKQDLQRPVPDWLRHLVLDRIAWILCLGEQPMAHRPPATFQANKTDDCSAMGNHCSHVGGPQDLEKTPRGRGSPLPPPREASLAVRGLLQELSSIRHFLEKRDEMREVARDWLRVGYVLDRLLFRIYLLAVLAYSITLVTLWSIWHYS

[2] = target: T2, E129D mutant 5-HT3 receptor (mouse 5-HT3A subunit) (Mus musculus, UniProt P23979, E129D); assay: as above; format: cell-based; conditions: EC50 concentration of 5-HT
T2 sequence (P23979 24-483 isoform P23979-2 E129D limits assumed): T1 sequence (P23979 24-483 isoform P23979-2 E129N limits assumed) with N106D

[3] = system: Asn128 mutant 5-HT3 receptors; conditions: Asn128 mutant receptors in HEK cells; cited from earlier work
[4] = target: E129K mutant 5-HT3 receptor (mouse 5-HT3A subunit) (Mus musculus, UniProt P23979, E129K); assay: Single-point [3H]granisetron binding to solubilized oocyte preparations; conditions: 0.5 nM [3H]granisetron
[5] = system: Glu129 mutant 5-HT3 receptors; conditions: any Glu129 mutant receptor in HEK cells; concentrations up to 20 nM; cited from earlier work
[6] = target: E129A mutant 5-HT3 receptor (mouse 5-HT3A subunit) (Mus musculus, UniProt P23979, E129A); assay: Single-point [3H]granisetron binding to solubilized oocyte preparations; conditions: 0.5 nM [3H]granisetron
[7] = target: E129G mutant 5-HT3 receptor (mouse 5-HT3A subunit) (Mus musculus, UniProt P23979, E129G); assay: as above; conditions: 0.5 nM [3H]granisetron
[8] = target: T1, E129N mutant 5-HT3 receptor (mouse 5-HT3A subunit); assay: Agonist-induced currents, voltage clamp electrophysiology in Xenopus oocytes; format: cell-based
[9] = target: T3, N128E mutant 5-HT3 receptor (mouse 5-HT3A subunit) (Mus musculus, UniProt P23979, N128E); assay: as above; format: cell-based; conditions: for nH (Hill coefficient): N128E
T3 sequence (P23979 24-483 isoform P23979-2 N128E limits assumed): T1 sequence (P23979 24-483 isoform P23979-2 E129N limits assumed) with N105E, N106E

[10] = target: T4, N128A mutant 5-HT3 receptor (mouse 5-HT3A subunit) (Mus musculus, UniProt P23979, N128A); assay: as above; format: cell-based; conditions: for nH (Hill coefficient): N128A
T4 sequence (P23979 24-483 isoform P23979-2 N128A limits assumed): T1 sequence (P23979 24-483 isoform P23979-2 E129N limits assumed) with N105A, N106E

[11] = target: T5, N128D mutant 5-HT3 receptor (mouse 5-HT3A subunit) (Mus musculus, UniProt P23979, N128D); assay: as above; format: cell-based
T5 sequence (P23979 24-483 isoform P23979-2 N128D limits assumed): T1 sequence (P23979 24-483 isoform P23979-2 E129N limits assumed) with N105D, N106E

[12] = target: T6, WT 5-HT3 receptor (mouse 5-HT3A subunit) (Mus musculus, UniProt P23979); assay: as above; format: cell-based; conditions: for nH (Hill coefficient): WT; for EC50: oocytes, holding potential −60 mV
T6 sequence (P23979 24-483 isoform P23979-2 limits assumed): T1 sequence (P23979 24-483 isoform P23979-2 E129N limits assumed) with N106E

[13] = target: T7, N128Q mutant 5-HT3 receptor (mouse 5-HT3A subunit) (Mus musculus, UniProt P23979, N128Q); assay: as above; format: cell-based; conditions: for nH (Hill coefficient): N128Q
T7 sequence (P23979 24-483 isoform P23979-2 N128Q limits assumed): T1 sequence (P23979 24-483 isoform P23979-2 E129N limits assumed) with N105Q, N106E

[14] = target: T2, E129D mutant 5-HT3 receptor (mouse 5-HT3A subunit); assay: as above; format: cell-based

E129A mutant 5-HT3 receptor (mouse 5-HT3A subunit), sequence (P23979 24-489 E129A): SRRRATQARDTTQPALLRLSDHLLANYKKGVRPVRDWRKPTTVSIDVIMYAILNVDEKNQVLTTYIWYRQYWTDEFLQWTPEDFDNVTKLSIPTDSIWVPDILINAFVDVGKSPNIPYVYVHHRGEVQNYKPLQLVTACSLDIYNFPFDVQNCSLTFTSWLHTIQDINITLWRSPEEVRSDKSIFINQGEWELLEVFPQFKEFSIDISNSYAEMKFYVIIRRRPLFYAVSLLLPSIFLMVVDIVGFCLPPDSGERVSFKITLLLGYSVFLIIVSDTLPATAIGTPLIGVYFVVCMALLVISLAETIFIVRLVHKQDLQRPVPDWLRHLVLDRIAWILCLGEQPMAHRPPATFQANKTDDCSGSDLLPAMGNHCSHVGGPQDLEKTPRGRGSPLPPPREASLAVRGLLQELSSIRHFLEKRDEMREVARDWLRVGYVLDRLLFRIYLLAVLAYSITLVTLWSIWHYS
E129G mutant 5-HT3 receptor (mouse 5-HT3A subunit), sequence (P23979 24-483 isoform P23979-2 E129G limits assumed): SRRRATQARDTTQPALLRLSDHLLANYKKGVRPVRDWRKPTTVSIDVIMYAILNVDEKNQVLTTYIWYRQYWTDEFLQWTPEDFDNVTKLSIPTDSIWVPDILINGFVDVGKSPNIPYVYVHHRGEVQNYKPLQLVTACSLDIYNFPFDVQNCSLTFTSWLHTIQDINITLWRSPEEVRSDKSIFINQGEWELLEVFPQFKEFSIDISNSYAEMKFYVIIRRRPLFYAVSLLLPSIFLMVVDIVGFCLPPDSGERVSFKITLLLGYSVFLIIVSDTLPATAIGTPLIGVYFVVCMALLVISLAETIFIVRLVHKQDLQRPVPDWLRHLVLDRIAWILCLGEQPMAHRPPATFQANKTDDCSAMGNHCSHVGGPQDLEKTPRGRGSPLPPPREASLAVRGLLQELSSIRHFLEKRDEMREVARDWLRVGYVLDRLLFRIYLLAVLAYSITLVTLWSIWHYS
E129K mutant 5-HT3 receptor (mouse 5-HT3A subunit), sequence (P23979 24-483 isoform P23979-2 E129K limits assumed): as the sequence (P23979 24-483 isoform P23979-2 E129G limits assumed) above, with G106K counted along it

| Compound | EC50 [9] [µM] | nH (Hill coefficient) [9] | EC50 [10] [µM] | nH (Hill coefficient) [10] | nH (Hill coefficient) [12] | EC50 ([12]; pEC50, WT) [µM] | EC50 [13] [µM] | nH (Hill coefficient) [13] | other results |
| --- | --- | --- | --- | --- | --- | --- | --- | --- | --- |
| CN1C2CCCC1CC(NC(=O)c1nn(C)c3ccccc13)C2 (stereo not shown) [granisetron] | – | – | – | – | – | – | – | – | block of the response to 5-HT [1]: did not block; block of the response to 5-HT ([2]; 10 nM granisetron): 80 ± 5% and ~80%; block of the response to 5-HT ([2]; 100 nM granisetron): 96 ± 3% |
| CN1C2CCCC1CC(NC(=O)c1nn(C)c3ccccc13)C2 (stereo not shown) [[^3H]granisetron] | – | – | – | – | – | – | – | – | binding affinity vs WT [3]: no significant differences; specific radioligand binding [4]: No specific radioligand binding; specific binding [5]: no specific binding; specific radioligand binding [6]: No specific radioligand binding; specific radioligand binding [7]: No specific radioligand binding |
| NCCc1c[nH]c2ccc(F)cc12 [5-FT, 5-fluorotryptamine] | 13.8 | 1.97 ± 0.18 | 10 | 2.34 ± 0.75 | 2.71 ± 0.24 | 17.8 | 94 | 2.38 ± 0.58 | EC50 [8]: 11.7 µM; nH (Hill coefficient) ([8]; E129N): 1.25 ± 0.13 ^b; EC50 [11]: 17.8 µM; nH (Hill coefficient) ([11]; N128D): 2.61 ± 0.28; EC50 [14]: 8.3 µM; nH (Hill coefficient) ([14]; E129D): 1.95 ± 0.30 |
| NCCc1c[nH]c2ccccc12 [tryptamine] | 59 | 2.90 ± 0.53 | 91 | 2.90 ± 0.68 | 2.86 ± 0.14 | 117 | 240 | 3.10 ± 0.39 | EC50 ([12]; EC50, WT): 120 µM |
